Reference: article PMC12676205, “New Se‐Compounds With Antileishmanial, Antitumor, and Carbonic Anhydrase Inhibitory Properties” (Archiv Der Pharmazie, 2025)

Experiments:
OVCAR‐5 = test: NCI-60 one-dose screen, OVCAR-5; assay type: cell-based, human; conditions: 10 µM, 48 h
Method: (§1) To explore the potential antiproliferative properties of the newly synthesized derivatives, they were submitted to the National Cancer Institute's (NCI) Developmental Therapeutics Program (DTP) for screening at 10 μM in a panel of approximately 60 human cancer cell lines from different cancer types. The results are reported as the growth percentage (GP), which is the growth of the treated cells with each compound for 48 h compared to the untreated controls (Figure 2). […] The initial screening results are summarized in Figure 2, and the mean GP values of each subpanel are depicted in Figure 3. The full reports are compiled in the Supplementary Section.
(§2) All the reported selenoesters (1–6) were submitted to the DTP of NCI. First, they were screened at a single dose (10^−5 M) against a panel of 60 cancer cell lines derived from different tumor types following the methodology available (https://dtp.cancer.gov/discovery_development/nci-60/methodology.htm). As all the compounds satisfied the threshold inhibition criteria established, they were further assessed at five concentrations (0.01, 0.1, 1, 10, and 100 µM) against the same cell panel to obtain their corresponding dose–response curves and three antitumor parameters (GI50, TGI, and LC50) by regression. GraphPad Prism 7.0 Software was used to represent the corresponding graphs.

Colon subpanel [1] = test: NCI-60 five-dose assay, colon subpanel; assay type: cell-based; conditions: Homo sapiens, 48 h; for GI50: read-out: Mean GI50 Colon; for CC50: read-out: Mean LC50 Colon
Method: (§3) All the compounds were selected for further testing since they fulfilled the set NCI one‐dose screening parameters for threshold inhibition. They were tested at five different concentrations (0.01, 0.1, 1, 10, and 100 μM) for 48 h against the same cell line panel and the dose–response curves along with three response parameters (50% growth inhibitory concentration [GI50], the 50% lethal concentration [LC50], and the total growth inhibition [TGI]) were calculated for every cancer cell line. The full reported data and corresponding graphs are compiled in Supporting Information S1. Average values of GI50, TGI, and LC50 values of all the reported selenoesters in all the subpanels are represented in Figure 4.
as §2

Melanoma subpanel = test: NCI-60 one-dose screen, melanoma subpanel; assay type: cell-based, human; conditions: 10 µM, 48 h
Method: as §1, §2

Leukemia subpanel [2] = test: NCI-60 five-dose assay, leukemia subpanel; assay type: cell-based; conditions: Homo sapiens, 48 h; for GI50: read-out: Mean GI50 Leukemia; for CC50: read-out: Mean LC50 Leukemia
Method: as §3, §2

Ovarian subpanel = test: NCI-60 one-dose screen, ovarian subpanel; assay type: cell-based, human; conditions: 10 µM, 48 h
Method: as §1, §2

Leukemia subpanel [3] = test: NCI-60 one-dose screen, leukemia subpanel; assay type: cell-based, human; conditions: 10 µM, 48 h
Method: as §1, §2

Colon subpanel [4] = test: NCI-60 one-dose screen, colon subpanel; assay type: cell-based, human; conditions: 10 µM, 48 h
Method: as §1, §2

hCA I = target: T1, hCA I (Homo sapiens, UniProt P00915); test: hCA I inhibition, stopped-flow CO2 hydration assay; assay type: biochemical; conditions: stopped flow technique, mean from three assays
T1 construct: made in house
T1 sequence (P00915 whole entry): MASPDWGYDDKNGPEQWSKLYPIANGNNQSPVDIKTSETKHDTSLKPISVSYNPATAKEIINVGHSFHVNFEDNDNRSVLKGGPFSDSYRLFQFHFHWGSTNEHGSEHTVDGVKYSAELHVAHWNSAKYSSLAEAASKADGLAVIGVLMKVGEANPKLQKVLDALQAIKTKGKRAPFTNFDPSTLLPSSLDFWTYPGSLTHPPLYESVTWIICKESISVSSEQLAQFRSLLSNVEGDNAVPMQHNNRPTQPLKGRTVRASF
Method: (§4) An Applied Photophysics stopped‐flow instrument was used to assay the CA‐catalyzed CO2 hydration activity [52]. […] The uncatalyzed rates were determined in the same manner and subtracted from the total observed rates. Stock solutions of the inhibitor (0.1 mM) were prepared in distilled–deionized water, and dilutions up to 0.01 nM were done thereafter with the assay buffer. Inhibitor and enzyme solutions were preincubated together for 15 min at room temperature before the assay, to allow for the formation of the E–I complex. The inhibition constants were obtained by Nonlinear least‐squares methods using PRISM 3 and the Cheng‐Prusoff equation as reported earlier and represent the mean from at least three different determinations. All CA isoforms were recombinant proteins obtained in‐house, as reported earlier [54, 55, 56].

[5] = test system: NCI‐60 human cancer cell lines; test: NCI-60 five-dose assay, whole panel; assay type: cell-based; conditions: 48 h, bound for every subpanel
Method: as §3, §2

Renal subpanel = test: NCI-60 one-dose screen, renal subpanel; assay type: cell-based, human; conditions: 10 µM, 48 h
Method: as §1, §2

[6] = test system: NSCL (non‐small‐cell lung cancer) subpanel; test: NCI-60 one-dose screen, NSCL subpanel; assay type: cell-based, human; conditions: 10 µM, 48 h
Method: as §1, §2

HaCaT cells = test: MTS cell viability assay in nonmalignant HaCaT cells; assay type: cell-based, human; conditions: 48 h, mean ± SD
Method: (MTS) assay as previously described. Thus, the selenoesters were tested at seven different concentrations (1, 2.5, 5, 10, 25, 50, and 100 µM) during 48 h to determine their corresponding IC50 values.
The effect of each compound on the cell viability of HaCaT cells was tested using the MTS assay. The compounds (1–6) were dissolved in DMSO at a concentration of 10^−2 M, and serial dilutions were prepared. Briefly, the cells were seeded in a 96‐well plate at a density of 1 × 10^4 cells per well. After 24 h of incubation, the cells were treated with either DMSO or seven different concentrations of each selenoester (1, 2.5, 5, 10, 25, 50, and 100 µM) for 48 h in triplicate. At the end of the treatment duration, the media were removed and fresh media were added containing 20 μL of MTS (Promega, USA) per well. After 1 h incubation, the absorbances were read at a wavelength of 490 nm in a 96‐well multiscanner, and the ratio of viable cells was calculated. Data were obtained from at least three independent experiments performed in triplicate. The IC50 values were calculated using OriginPro 8.5.1 Software for nonlinear curve fitting, and Graphpad Prism 7.0 Software was used to represent the corresponding graphs.

Breast subpanel [7] = test: NCI-60 one-dose screen, breast subpanel; assay type: cell-based, human; conditions: 10 µM, 48 h
Method: as §1, §2

hCA IX = target: T2, hCA IX (Homo sapiens, UniProt Q16790); test: biochemical; conditions: stopped flow technique, mean from three assays
T2 construct: made in house
Method: as §4

Breast subpanel [8] = test: NCI-60 five-dose assay, breast subpanel; assay type: cell-based; conditions: Homo sapiens, 48 h; for GI50: read-out: Mean GI50 Breast; for LC50: read-out: Mean LC50 Breast
Method: as §3, §2

[9] = THP-1 cytotoxicity (MTT, PMA-differentiated macrophages); assay type: cell-based, human; conditions: human, THP-1 cells differentiated into macrophages with PMA, mean ± SD
Method: The synthesized compounds were tested for their antileishmanial activity against promastigotes of L. major and L. infantum at four concentrations (1, 10, 50, and 100 µM) for 48 h using the 3‐(4,5‐dimethylthiazol‐2‐yl)‐2,5‐diphenyltetrazolium bromide (MTT) assay. In this evaluation, the activity was expressed in IC50 (concentration inhibiting the parasite growth by 50%). […] The CC50 was defined as the concentration of selenoesters that led to a reduction in the viability of the macrophages, such that only 50% of the cells survived when compared to the control group. This cell line, derived from the blood of a human with acute monocytic leukemia, was chosen as it has been widely reported that it resembles tissue macrophages to various extents as well as supports the infection by numerous Leishmania promastigotes. The selectivity indexes (SIs) were calculated as the ratio between toxicity on macrophages (THP‐1 cells)/antileishmanial activity. The data for standard control drugs (miltefosine and paromomycin) are included for comparison purposes.
THP‐1 cells were seeded at a concentration of 8 × 10^4 cells per well in 96‐well plates and incubated with phorbol 12‐myristate 13‐acetate (PMA) (50 ng/mL) for 72 h (37°C and 5% CO2) to differentiate them into macrophages. After that, the culture medium was removed and the cells were treated with the reported selenoesters at different increasing concentrations ranging from 1 to 200 µM for 48 h at 37°C and 5% of CO2. Macrophages treated with DMSO (1%) were used as controls, and the compounds were dissolved in DMSO at a stock concentration of 10^−2 M. Afterward, the MTT assay was performed. Data were obtained from three independent experiments performed in triplicate. The absorbance was measured at 550 nm using a MultiskanEX photometric plate reader for microplates. The CC50 values were calculated using OriginPro 8.5.1. software by nonlinear curve fitting. SIs were calculated as the ratio of the CC50 values determined for the macrophages and the IC50 values obtained in each Leishmania promastigote. GraphPad Prism 7.0 Software was used to obtain the corresponding graphs.

Row | SMILES | behaviour in OVCAR‐5 (OVCAR‐5) | GI50 (Colon subpanel [1]) [nM] | CC50 (Colon subpanel [1]) [µM] | average growth cell value, Melanoma (Melanoma subpanel) [%] | GI50 (Leukemia subpanel [2]) [nM] | CC50 (Leukemia subpanel [2]) [µM] | average growth cell value, Ovarian (Ovarian subpanel) [%] | average growth cell value, Leukemia (Leukemia subpanel [3]) [%] | average growth cell value, Colon (Colon subpanel [4]) [%] | Ki (hCA I) [µM] | mean TGI values against all the subpanels tested [5] | average growth cell value, Renal (Renal subpanel) [%] | average growth cell value, NSCL [6] [%] | IC50 (HaCaT cells; Homo sapiens, HaCaT) [µM] | average growth cell value, Breast (Breast subpanel [7]) [%] | Ki (hCA IX) [µM] | GI50 (Breast subpanel [8]) [nM] | LC50 (Breast subpanel [8]) [µM] | CC50 at 48 h [9] [µM] | also measured
1 | N#Cc1ccc(NC(=O)C[Se]C(=O)c2ccccc2)cc1C(F)(F)F [Compound 1, Se‐(2‐((4‐cyano‐3‐(trifluoromethyl)phenyl)amino)‐2‐oxoethyl)benzoselenoate] | cytotoxic activity | 1980 | 6.79 | -94.28 | 1010 | 4.36 | -92.77 | -96.53 | -95.24 | > 100 | below 5 µM | -95.41 | -96.68 | 11.8 ± 1.89 | -86.92 | 57.2 | 1610 | 8.02 |  | 
2 | O=C(C[Se]C(=O)c1ccccc1)Nc1ccc([N+](=O)[O-])c(C(F)(F)F)c1 [Compound 2, Se‐(2‐((4‐nitro‐3‐(trifluoromethyl)phenyl)amino)‐2‐oxoethyl)benzoselenoate] | cytotoxic activity | 2110 | 7.68 | -94.64 | 900 | 4.34 | -92.98 | -94.69 | -81.88 | > 100 | below 5 µM | -96.22 | -96.34 | 9.49 ± 0.42 | -83.18 | 76.3 | 1480 | 7.68 |  | 
3 | O=C(C[Se]C(=O)c1ccccc1)Nc1cccc(OC(F)(F)F)c1 [Compound 3, Se‐(2‐oxo‐2‐((3‐(trifluoromethoxy)phenyl)amino)ethyl)benzoselenoate] | cytostatic behavior | 8520 | 43.9 | -50.62 | 3060 | 19.6 | -50.78 | -36.81 | 25.15 | > 100 |  | -61.17 | -57.44 | ~64 | -45.08 | 80.2 | 2620 | 22.6 | ≥ 200 | IC50 (HaCaT cells): 63.7 ± 4.32 µM
4 | O=C(C[Se]C(=O)c1ccco1)Nc1ccc([N+](=O)[O-])c(C(F)(F)F)c1 [Compound 5, Se‐(2‐((4‐nitro‐3‐(trifluoromethyl)phenyl)amino)‐2‐oxoethyl)furan‐2‐carboselenoate] | cytotoxic activity | 2580 | 46.5 | -56.28 | 2510 | > 100 | -38.57 | 6.59 | -17.82 | > 100 |  | -39.51 | -42.46 |  | -28.95 | 21.1 | 2010 |  | 108 ± 5.53 | 
5 | O=C(C[Se]C(=O)c1ccco1)Nc1cccc(OC(F)(F)F)c1 [Compound 6, Se‐(2‐oxo‐2‐((3‐(trifluoromethoxy)phenyl)amino)ethyl)furan‐2‐carboselenoate] | cytostatic behavior | 7930 | 67.3 | -18.35 | 6450 | > 100 | 5.95 | 39.71 | 31.61 | > 100 |  | -17.86 | -12.41 |  | -10.87 | 35.9 | 3080 |  | 38.7 ± 6.71 | GI50 ([5]; Homo sapiens, read-out: mean GI50 values in all the cancer subpanels tested): < 10 µM
